For 22 compounds, IC50 and EC50 results are on record in patent US6872805B2 (Bristol-Myers Squibb Company, priority 2000, dated 2005).

pEC50, pIC50: −log10 of the molar value. Where two headings read alike, the source gives them in different places. Where only a bound is given, the exact number is not on record here.

Experiment [1] deals with HCV NS3/4A protease complex (Hepatitis C virus genotype 1a, UniProt P27958, C1454S/C1711G). Description: Recombinant HCV NS3/4A protease complex FRET peptide assay (strain not stated). It is filed as biochemical. The note with it: IC50, NS3/4A protease enzyme assay, strain not stated; activity ranges.
In experiment [2] the test system is HCV replicon in Huh7 cells. Description: HCV replicon cell-based assay. Also noted: species or system HCV strain 1B. The note with it: Hepatitis C virus, Huh-7, 96 h. The essentials:
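Genotype 1b subgenomic replicon Huh7 cells exposed to compound 4 days at 37° C in 4% FCS, 0.5% DMSO medium. EC50 from TaqMan RT-PCR of HCV RNA, normalized to total RNA by RiboGreen; CC50 from alamar Blue fluorescence after 4 h.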
A general note: Replicon systems follow genome replication, usually without infectious particles.

Where [3] appears, read: HCV replicon, Huh7 cells, 4 days, activity ranges, read-out: EC50.

HCV NS3/4A protease complex, sequence (P27958 1027-1711, stated change not applied): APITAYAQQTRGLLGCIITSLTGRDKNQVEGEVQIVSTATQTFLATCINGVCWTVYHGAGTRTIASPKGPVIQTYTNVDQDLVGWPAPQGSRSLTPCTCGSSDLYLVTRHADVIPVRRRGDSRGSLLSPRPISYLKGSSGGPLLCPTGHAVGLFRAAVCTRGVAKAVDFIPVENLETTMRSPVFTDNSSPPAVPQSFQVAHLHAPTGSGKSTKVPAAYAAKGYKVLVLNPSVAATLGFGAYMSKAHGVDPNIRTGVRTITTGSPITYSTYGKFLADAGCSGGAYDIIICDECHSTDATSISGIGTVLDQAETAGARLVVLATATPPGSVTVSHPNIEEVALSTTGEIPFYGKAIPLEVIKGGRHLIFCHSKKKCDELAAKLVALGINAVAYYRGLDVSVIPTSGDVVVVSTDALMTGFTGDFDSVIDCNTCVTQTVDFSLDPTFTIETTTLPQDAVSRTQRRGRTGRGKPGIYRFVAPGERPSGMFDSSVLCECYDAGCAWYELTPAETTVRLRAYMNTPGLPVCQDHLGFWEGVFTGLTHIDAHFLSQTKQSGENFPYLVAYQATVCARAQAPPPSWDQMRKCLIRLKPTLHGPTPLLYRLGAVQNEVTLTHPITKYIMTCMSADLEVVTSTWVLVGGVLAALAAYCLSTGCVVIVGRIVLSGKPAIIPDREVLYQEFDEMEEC
HCV NS3/4A protease complex, sequence (P27958 1027-1711, stated change not applied): as above

For the compound `C=C[C@@H]1C[C@]1(NC(=O)C1C[C@@H](Oc2cc(-c3ccccc3)nc3cc(OC)ccc23)CN1C(=O)[C@@H](NC(=O)CF)C(C)(C)C)C(=O)NS(=O)(=O)C1CC1` (stereo partly drawn) [Compound 112, 1-[2S-(2-Fluoro-acetylamino)-3,3-dimethyl-butyryl]-4R-(7-methoxy-2-phenyl-quinolin-4-yloxy)-pyrrolidine-2S-carboxylic acid (1R-cyclopropanesulfonylaminocarbonyl-2S-vinyl-cyclopropyl)-amide], the pIC50 (as a rule, the negative decadic logarithm of the IC50, by convention in mol/L) in experiment [1] is over 7.30. Besides, the pEC50 (commonly −log10 of the EC50, conventionally taken in molar units) in experiment [2] was over 7.30.
As to `C=C[C@@H]1C[C@]1(NC(=O)C1C[C@@H](Oc2cc(-c3ccccc3)nc3cc(OC)ccc23)CN1C(=O)[C@@H](NC(C)=O)C(C)(C)C)C(=O)NS(=O)(=O)C1CC1` (stereo partly drawn) [Compound 98, 1-(2S-Acetylamino-3,3-dimethyl-butyryl)-4R-(7-methoxy-2-phenyl-quinolin-4-yloxy)-pyrrolidine-2S-carboxylic acid (1R-cyclopropanesulfonylaminocarbonyl-2S-vinyl-cyclopropyl)amide], in experiment [1], the pIC50 is over 7.30. Also, the pEC50 in experiment [2] (setting [3]) is over 6.30.
Take `C=C1C[C@]1(NC(=O)[C@@H]1C[C@@H](Oc2cc(-c3ccccc3)nc3cc(OC)ccc23)CN1C(=O)C(NC(=O)OC(C)(C)C)C(C)(C)C)C(=O)NS(=O)(=O)c1ccccc1C(F)(F)F` (some centres unmarked) [Compound 47]: the pIC50 in experiment [1] was over 7.30. For the same compound, the pEC50 in experiment [2] (setting [3]) was over 6.30.
For `COc1ccc2c(O[C@@H]3CC(C(=O)NC4(C(=O)NS(=O)(=O)C5CC5)CC4)N(C(=O)[C@@H](NC(=O)OC(C)(C)C)C(C)C)C3)cc(-c3ccccc3)nc2c1` (some centres unmarked) [Compound 21], in that order: over 7.30 and over 5.30.
`C=CC1C[C@]1(NC(=O)[C@@H]1C[C@@H](Oc2cc(-c3ccccc3)nc3cc(OC)ccc23)CN1C(=O)[C@@H](NC(=O)OC(C)(C)C)C(C)(C)C)C(=O)NS(=O)(=O)CCCC` (some centres unmarked) [Compound 23]: the pIC50 in experiment [1] was over 7.30. Moreover, in experiment [2] (setting [3]), the pEC50 was over 6.30.
Take `C=CC1C[C@]1(NC(=O)[C@@H]1C[C@@H](Oc2cc(-c3ccccc3)nc3cc(OC)ccc23)CN1C(=O)[C@@H](NC(=O)N(CCC(F)(F)F)CC1CC1)C(C)(C)C)C(=O)NS(=O)(=O)C1CC1` (stereo in doubt) [Compound 20, 1-{2-[3-Cyclopropylmethyl-3-(3,3,3-trifluoropropyl)-ureido]-3,3-dimethylbutyryl}-4-(7-methoxy-2-phenyl-quinolin-4-yloxy)-pyrrolidine-2-carboxylic acid (1-cyclopropanesulfonylaminocarbonyl-2-vinyl-cyclopropyl)amide]: in experiment [1], the pIC50 is over 7.30. Further, in experiment [2] (setting [3]), the pEC50 is over 6.30.
As to `C=CC1C[C@]1(NC(=O)[C@@H]1C[C@@H](Oc2cc(-c3ccccc3)nc3cc(OC)ccc23)CN1C(=O)[C@@H](NC(=O)OC(C)(C)C)C(C)(C)C)C(=O)NS(=O)(=O)c1cccc([N+](=O)[O-])c1` (some centres unmarked) [Compound 53], in experiment [1], the pIC50 was over 7.30. The pEC50 in experiment [2] (setting [3]) is over 4.30.
Regarding `C=CCC[C@](C)(NC(=O)[C@@H]1C[C@@H](Oc2cc(-c3ccccc3)nc3cc(OC)ccc23)CN1C(=O)C(NC(=O)OC(C)(C)C)C(C)(C)C)C(=O)NS(=O)(=O)c1cccc(C#N)c1` (some centres unmarked) [Compound 40], the pIC50 in experiment [1] is over 7.30. Moreover, the pEC50 in experiment [2] (setting [3]) is over 6.30.
For `C=C[C@@H]1C[C@]1(NC(=O)C1CC(Oc2cc(-c3ccccc3)nc3cc(OC)ccc23)CN1C(=O)[C@@H](NC(=O)OCc1ccccc1)C(C)(C)C)C(=O)NS(=O)(=O)C1CC1` (stereo partly drawn) [Compound 114, {1S-[2S-(1R-cyclopropanesulfonylaminocarbonyl-2S-vinyl-cyclopropylcarbamoyl)-4R-(7-methoxy-2-phenyl-quinolin-4-yloxy)-pyrrolidine-1-carbonyl]-2,2-dimethyl-propyl}-carbamic acid benzyl ester], in that order: over 7.30 and over 7.30.
`C=C[C@@H]1C[C@]1(NC(=O)C1C[C@@H](Oc2cc(-c3ccccc3)nc3cc(OC)ccc23)CN1C(=O)[C@@H](NC(=O)C(F)(F)F)C(C)(C)C)C(=O)NS(=O)(=O)C1CC1` (stereo partly drawn) [Compound 99, 1-[3,3-dimethyl-2S-(2,2,2-trifluoro-acetylamino)-butyryl]-4R-(7-methoxy-2-phenylquinolin-4-yloxy)pyrrolidine-2S-carboxylic acid(1R-cyclopropanesulfonylaminocarbonyl-2S-vinylcyclopropyl)amide]: the pIC50 in experiment [1] is over 7.30. For the same compound, in experiment [2] (setting [3]), the pEC50 was over 6.30.
Take `C=CC1C[C@]1(NC(=O)[C@@H]1C[C@@H](Oc2cc(-c3ccccc3)nc3cc(OC)ccc23)CN1C(=O)C(NC(=O)OC(C)(C)C)C(C)(C)C)C(=O)NS(=O)(=O)c1ccc(C(C)(C)C)cc1` (some centres unmarked) [Compound 60]: in experiment [1], the pIC50 is over 6.30. In addition, the pEC50 in experiment [2] (setting [3]) was over 6.30.
Regarding `C=CCC[C@](C)(NC(=O)[C@@H]1C[C@@H](Oc2cc(-c3ccccc3)nc3cc(OC)ccc23)CN1C(=O)C(NC(=O)OC(C)(C)C)C(C)(C)C)C(=O)NS(=O)(=O)c1cccc(Cl)c1` (some centres unmarked) [Compound 43], the pIC50 in experiment [1] is over 7.30. Besides, the pEC50 in experiment [2] (setting [3]) is over 6.30.
Consider `C=C[C@@H]1C[C@]1(NC(=O)C1C[C@@H](Oc2cc(-c3ccccc3)nc3cc(OC)ccc23)CN1C(=O)[C@@H](NC(=O)CC(C)(C)C)C(C)(C)C)C(=O)NS(=O)(=O)C1CC1` (stereo partly drawn) [Compound 103, 1-[2S-(3,3-Dimethyl-butyrylamino)-3,3-dimethyl-butyryl]-4R-(7-methoxy-2-phenyl-quinolin-4-yloxy)-pyrrolidine-2S-carboxylic acid (1R-cyclopropanesulfonylaminocarbonyl-2S-vinyl-cyclopropyl)amide], for which, in experiment [1], the pIC50 was over 7.30. Besides, the pEC50 in experiment [2] (setting [3]) was over 7.30.
In the case of `C=C[C@@H]1C[C@]1(NC(=O)C1C[C@@H](Oc2cc(-c3ccccc3)nc3cc(OC)ccc23)CN1C(=O)[C@@H](Nc1ccccc1[N+](=O)[O-])C(C)(C)C)C(=O)NS(=O)(=O)C1CC1` (stereo partly drawn) [Compound 128, 1-[3,3-dimethyl-2S-(2-nitrophenylamino)-butyryl]-4R-(7-methoxy-2-phenyl-quinolin-4-yloxy)-pyrrolidine-2S-carboxylic acid (1R-cyclopropanesulfonyl-aminocarbonyl-2S-vinylcyclopropyl)amide], in experiment [1], the pIC50 was over 5.30. The pEC50 in experiment [2] (setting [3]) is over 5.30.
Turning to `C=C1C[C@]1(NC(=O)[C@@H]1C[C@@H](Oc2cc(-c3ccccc3)nc3cc(OC)ccc23)CN1C(=O)C(NC(=O)OC(C)(C)C)C(C)(C)C)C(=O)NS(=O)(=O)c1cc(F)ccc1C` (some centres unmarked) [Compound 46], the negative logarithm of the IC50 (pIC50) in experiment [1] was over 7.30. In experiment [2] (setting [3]), the pEC50 was over 6.30.
On to `C=C[C@@H]1C[C@]1(NC(=O)C1C[C@@H](Oc2cc(-c3ccccc3)nc3cc(OC)ccc23)CN1C(=O)[C@@H](NC(=O)COC(C)=O)C(C)(C)C)C(=O)NS(=O)(=O)C1CC1` (stereo partly drawn) [Compound 106, acetic acid {1S-[2S-(1R-cyclopropanesulfonylaminocarbonyl-2S-vinyl-cyclopropylcarbamoyl)-4R-(7-methoxy-2-phenyl-quinolin-4-yloxy)-pyrrolidine-1-carbonyl]-2,2-dimethyl-propylcarbamoyl}-methyl ester], for which the pIC50 in experiment [1] was over 7.30. For the same compound, the pEC50 in experiment [2] (setting [3]) was over 6.30.
On the same counts, the results for `C=C[C@@H]1C[C@]1(NC(=O)C1C[C@@H](Oc2cc(-c3ccccc3)nc3cc(OC)ccc23)CN1C(=O)[C@@H](NC(=O)CC1CC1)C(C)(C)C)C(=O)NS(=O)(=O)C1CC1` (stereo partly drawn) [Compound 104, 1-[2S-(2-cyclopropyl-acetylamino)-3,3-dimethyl-butyryl]-4R-(7-methoxy-2-phenyl-quinolin-4-yloxy)-pyrrolidine-2S-carboxylic acid (1R-cyclopropanesulfonylaminocarbonyl-2S-vinyl-cyclopropyl)-amide] are over 7.30 and over 7.30.
For the compound `COc1ccc2c(OC3C[C@@H](C(=O)NC4(C(=O)NS(=O)(=O)C5CC5)CCC45CC5)N(C(=O)[C@@H](NC(=O)OC(C)(C)C)C(C)(C)C)C3)cc(-c3ccccc3)nc2c1` (some centres unmarked) [Compound 141], the pIC50 in experiment [1] is over 6.30. The pEC50 in experiment [2] (setting [3]) is over 5.30.
For `C=CC1C[C@]1(NC(=O)[C@@H]1C[C@@H](Oc2cc(-c3ccccc3)nc3cc(OC)ccc23)CN1C(=O)[C@@H](NC(=O)OC(C)(C)C)C(C)(C)C)C(=O)NS(=O)(=O)C1CCCC1` (stereo in doubt) [Compound 12, {1-[2-(1-Cyclopentanesulfonylaminocarbonyl-2-vinylcyclopropylcarbamoyl)-4-(7-methoxy-2-phenylquinolin-4-yloxy)-pyrrolidine-1-carbonyl]-2,2-dimethylpropyl}carbamic acid tert-butyl ester], in that order: over 6.30 and over 6.30.
As to `C=C[C@@H]1C[C@]1(NC(=O)C1C[C@@H](Oc2cc(-c3ccccc3)nc3cc(OC)ccc23)CN1C(=O)[C@@H](NC(=O)COc1ccc(OC)cc1)C(C)(C)C)C(=O)NS(=O)(=O)C1CC1` (some centres unmarked) [Compound 108], the pIC50 in experiment [1] is over 7.30. Further, in experiment [2] (setting [3]), the pEC50 was over 6.30.
On to `C=CC1CC1(NC(=O)OC(C)(C)C)C(=O)N1C[C@H](Oc2cc(-c3ccccc3)nc3cc(OC)ccc23)C[C@H]1C(=O)N[C@]1(C(=O)NS(=O)(=O)C2CC2)CC1CC` (some centres unmarked) [Compound 69], for which, in experiment [1], the pIC50 is over 6.30. Also, in experiment [2] (setting [3]), the pEC50 is over 6.30.
As to `C=CCC[C@](C)(NC(=O)[C@@H]1C[C@@H](Oc2cc(-c3ccccc3)nc3cc(OC)ccc23)CN1C(=O)C(NC(=O)OC(C)(C)C)C(C)(C)C)C(=O)NS(=O)(=O)c1ccc(Cl)cc1` (some centres unmarked) [Compound 44], in experiment [1], the pIC50 was over 7.30. For the same compound, the pEC50 in experiment [2] (setting [3]) is over 6.30.
